Test results from US20160280651A1, “COMPOUNDS THAT INDUCE ABA RESPONSES” (THE REGENTS OF THE UNIVERSITY OF CALIFORNIA, priority 2013, published 2016).
“Also recorded” adds a separate entry of the source.

How the values were obtained:
GmNAC4 and GmbZIP1 = assay: Quantitative RT-PCR of ABA-responsive genes in soybean; format: in vivo
Source text: (§1) FIG. 13A-FIG. 13E. LC66C6 modulates ABA responses in diverse species. Germination inhibition (A) and transpirational water loss in detached leaves 2-hours after detachment (B) in response to compounds shown. The expression of ABA-responsive marker genes in Soybean (C), Barley (D) and Maize (E) after application of chemicals. D, P, L and A indicate DMSO, pyrabactin, LC66C6 and (+)-ABA, respectively.
(§2) Total RNA was isolated using Plant RNA purification reagent (Invitrogen, USA) according to the manufacturer's instructions. cDNA was synthesized from 1 μg of total RNA using the QantiTec reverse transcription kit (Qiagen, USA). Real-time PCR using Maxima® SYBR Green/Fluorescein qPCR Master Mix (Fermentas) was performed with the iQ5 real-time PCR detection system (Bio-Rad, Hercules, Calif.). The relative amounts of target mRNAs were determined using the relative standard curve method and were normalized by relative amount of internal control mRNA. Biological triplicate experiments were performed.

Arabidopsis seeds = assay: Arabidopsis germination inhibition, wild type and mutants, Example 2; format: in vivo
Method: FIG. 5A-FIG. 5D. Novel ABA agonists inhibit germination of Arabidopsis seeds more strongly than pyrabactin. (A) and (B) Comparison of seed germination inhibition by ABA agonists. (C) and (D) the effects of ABA and LC66C6 (also called quinabactin) on Arabidopsis ABA signaling- and biosynthesis-deficient mutants on germination (C) and seedling establishment (D). Seeds were sown on ½×MS agar plate containing chemicals, and were stored at 4° C. for 4 days, then transferred at 22±2° C. Photographs (A and C) and germination (B) or green cotyledon (D) scores were assessed after a 4-day incubation under continuous illumination.
As a third screening approach, the Life Chemicals library was also screened for Arabidopsis germination inhibitors in solidified agar medium containing 0.5×MS salts, 0.5% sucrose and 25 μM test compound. Hits from the germination assay were subsequently tested in yeast two hybrid assays. Hit compounds were restocked from their original vendors and used in secondary screens and compound characterization. […]
For Arabidopsis germination and hypocotyl growth inhibition analysis, seeds after-ripened about 4 weeks were surface-sterilized with a solution containing 5% NaClO and 0.05% Tween-20 for 10 minutes, and rinsed with water four times. […] Germination was determined after a 4-day incubation, whereas hypocotyl growth was photographed after 6-day incubation.

ABA-responsive genes = assay: ABA-responsive gene expression in moss; format: in vivo, Physcomitrella patens; conditions: 200 μM for 3 h
Method: FIG. 17A-FIG. 17D. The effect of ABA and its agonists in Physcomitrella patens and Chlamydomonas. Protonemal growth images (A) and quantitative analysis (B) of the effects of ABA and agonists on Phsycomitrella patens. Protonema were grown on 200 μM of specific test chemical for 10 days. […] Pyrabactin bleached protonema. (C) The expression of ABA-responsive genes of Physcomitrella patens. Protonema were treated with 200 μM chemical solutions for 3 h. (D) Colony growth of Chlamydomonas on the chemical with salinity stress and osmotic stress. There was no effect of ABA and LC66C6 on the Chlamydomonas growth with and without stresses.

Arabidopsis seedlings = assay: Root growth and plant growth inhibition of Arabidopsis seedlings; format: in vivo
Method: FIG. 6A-FIG. 6C. LC66C6 inhibits plant growth. (A) Photographs showing the effect of ABA, Pyrabactin and LC66C6 on the wild type, abi1-1 and PYR/PYL quadruple mutant Arabidopsis genotypes. (B) Root growth inhibition and (C) plant growth inhibition by ABA, LC66C6 and pyrabactin. Two day old seedlings were transferred on ½×MS plate containing chemicals and phenotypes scored or photographed after a 5-day incubation on test compounds.

Arabidopsis plants = assay: Stomatal aperture measurement; format: in vivo; conditions: wild-type, aba2 and abi1-1; 25 μM spray
Method: Physiological assays were performed on Arabidopsis plants grown at 22±2° C. and relative humidity (RH) 45±10% under a 16/8-h light/dark cycle. For transpirational water loss analyses in Arabidopsis, plants were pre-treated by aerosol spray of 4 ml solution containing 25 μM compound and 0.05% Tween-20. 12 4-week old plants were sprayed per compound or control analyzed. After overnight pre-treatment with compounds, the aerial portions were detached from roots, and their fresh weight measured at 20 min intervals over a 2 hour time period. To measure stomatal aperture, plants were pre-treated with compounds as described above, covered with plastic lids to maintain high RH and after overnight pre-treatment leaf epidermal impressions were obtained using Suzuki's Universal Micro-Printing (SUMP) method using SUMP impression solution with SUMP B plates (SUMP Laboratory). The leaf impressions were analyzed by light microscopy and stomatal apertures were determined from the pore widths using ImageJ 1.43v software (National Institutes of Health, USA). […] Pots were covered in Parafilm to so that the water loss measured was transpiration mediated. Soil water content % was determined by measuring pot weight and computed by removing dry soil weight from total weight.

[1] = system: broccoli, radish, alfalfa, soybean, barely, wheat, sorghum and maize seeds; assay: Germination inhibition in diverse species; format: in vivo; conditions: barley
Source text: as §1

ZmRab17 and ZmLEA = assay: Quantitative RT-PCR of ABA-responsive genes in maize; format: in vivo
Source text: as §1, §2

## CCCN1C(=O)CCc2cc(NS(=O)(=O)Cc3ccc(C)cc3)ccc21 [LC66C6]
GmNAC4 and GmbZIP1
  Expression of ABA-responsive genes GmNAC4 and GmbZIP1: strongly induces
Arabidopsis seeds
  Inhibition of germination of wild-type seeds: nearly as effective, on a per mole basis, at inhibiting germination as (+)-ABA; also recorded: one of the most effective agonists, after (+)-ABA, at inhibiting germination of wild-type seeds
ABA-responsive genes
  Expression of ABA-responsive genes in moss: can induce the expression of ABA-responsive genes in moss
Arabidopsis seedlings; wild-type and mutant plants
  Inhibition of plant growth: significantly greater than the inhibition by pyrabactin, and comparable to that of (+)-ABA
Arabidopsis seedlings; wild-type, abi1 and quadruple mutant, all concentrations tested
  Inhibition of root elongation: comparable to or slightly more effective than (+)-ABA
Arabidopsis plants
  Stomatal closure: induces stomatal closure in wild-type and the aba2 mutant, but not in the abi1-1 mutant
[1]
  Inhibition of germination in diverse species: inhibits germination; also recorded: greater than pyrabactin
ZmRab17 and ZmLEA
  Expression of ABA-responsive genes ZmRab17 and ZmLEA: weakly induces
